Assay results as given in BindingDB's records for doi:10.1021/np100503q (The Ohio State University, 2010).

Target: Transcription factor p65 (Human, UniProt Q04206)
Assay: Inhibition of NF-kappaB p65 isolated from nuclear extract of human HeLa cells assessed as blockade of binding to biotinylated consesus sequence by chemiluminescence assay

Transcription factor p65, sequence (Q04206 whole entry): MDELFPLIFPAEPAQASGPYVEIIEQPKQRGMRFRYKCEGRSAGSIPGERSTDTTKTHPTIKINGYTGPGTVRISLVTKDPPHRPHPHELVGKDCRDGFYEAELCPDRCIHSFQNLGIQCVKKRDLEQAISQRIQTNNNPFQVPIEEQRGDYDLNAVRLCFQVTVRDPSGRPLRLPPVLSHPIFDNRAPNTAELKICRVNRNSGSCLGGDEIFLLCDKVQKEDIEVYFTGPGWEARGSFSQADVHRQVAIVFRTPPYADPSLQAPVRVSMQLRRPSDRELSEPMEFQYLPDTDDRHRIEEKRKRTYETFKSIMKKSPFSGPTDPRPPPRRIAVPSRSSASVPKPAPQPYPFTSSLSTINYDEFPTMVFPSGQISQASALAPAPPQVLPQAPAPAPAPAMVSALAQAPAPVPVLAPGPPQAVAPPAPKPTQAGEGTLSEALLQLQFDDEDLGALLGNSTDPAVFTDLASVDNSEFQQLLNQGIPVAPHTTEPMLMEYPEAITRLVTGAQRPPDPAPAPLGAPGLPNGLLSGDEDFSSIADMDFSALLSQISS

Structure (SMILES): COC(=O)[C@H]1[C@@H](O)[C@@]2(O)c3c(OC)cc(O[C@@H]4O[C@@H]([C@H](O)CO)CO[C@@H]4OC)cc3O[C@@]2(c2ccc(OC)cc2)[C@@H]1c1ccccc1 [5'''-episilvestrol]
- IC50: > 20 µM
